{"source": "patent US12357723B2", "about": "“Antimicrobial silver iodate” (Innovotech, Inc., priority 2012, dated 2025)", "key": {"[1]": {"conditions": "for Grain size: 90° C."}, "[2]": {"assay": "Ag5IO6 solubility in water and saline, OECD Method (105) flask", "assay_type": "physicochemical", "source_text": "The purpose of this study was to develop a basic understanding of the solubility (and stability) of Ag5IO6 in pure water and 0.9% (physiological saline), following OECD Method (105)—flask."}, "[3]": {"assay": "Basic compatibility of Ag5IO6 with gels (visual, pH, UV-Vis, XRD)", "assay_type": "physicochemical", "source_text": "The purpose of this study was to determine whether Ag5IO6 could be incorporated into various gels without reacting with the gels. Ag5IO6 powder was combined with various commercially available hydrogels and then visually examined for stability, along with UV-Vis analysis and x-ray diffraction.\nGels selected: Guardian Laboratories AquaThik™ (Xanthan gum, PEG-180; 3% in water); Lubrajel® RC (Water, glycerin, propylene glycol, polyacrylic acid, sodium polyacrylate, 0.18% methylparaben, 0.02% propylparaben), and Lubrajel® PF (Glycerin, glyceryl acrylate/acrylic acid copolymer); SteriLub™ (unknown composition); BASF Pluronic® F127+Carbowax 600 (Polyoxyethylene-polyoxypropylene block copolymer; 18% Pluronic, 15% Carbowax 600); ConvaTec DuoDerm® Hydroactive® Sterile Gel (pectin, sodium carboxymethylcellulose); MoInlycke Normlgel® (0.9% NaCl, H2O, xanthan gum); Smith & Nephew IntraSite Gel (Water>60%, propylene glycol 10-30%, absorbent polymer<10%-crilanomer, a Graft-T starch copolymer) and SoloSite Gel (Water>60%, glycerol 10-30%, absorbent polymer<10%, allantoin<1%, antiseptic/preservative<1%); carboxymethylcellulose gel (4% in water); Cremophor; and Gelrite (0.4% in water).\nFor each gel, the samples were mixed in a small glass container with fine Ag5IO6 powder to generate 500 ppm Ag5IO6 in the gels. Each of the above formulations were examined for visual signs of instability, such as dramatic viscosity changes, color changes, release of gas, deposition of precipitate that appears different from the original Ag5IO6, and temperature change during stirring (heat release).\nUV-Vis Analysis: Samples were diluted to 1/10th their original concentration. For UV-Vis blanks, control gels (with no Ag5IO6) were prepared as described for each gel, and diluted to 1/10th as well. UV-Vis measurements were performed between 190-500 nm.\npHs of the gel formulations were measured with and without the Ag5IO6 added using pH indicator strips."}, "[4]": {"assay": "Ag5IO6 stability in solvents (isothermal TAM III heat flow, XRD)", "assay_type": "physicochemical", "experimental": "The purpose of this study was to determine whether or not Ag5IO6 interacts with methanol, tetrahydrofuran, acetone, and acetonitrile. […] of Ag5IO6 was placed in a vial, 2 mL of the solvent was added, and the vial was placed in a TAM III for an isothermal run at room temperature for >24 h with solvent only as the reference. The heat flow was measured. After the run was complete, the solvents were allowed to flash off and the solids collected were submitted to XRD. Samples exposed following essentially the same method for only 18 h were also submitted for XRD"}}, "note": "Read-outs that look alike come from different tables or passages of the source."}
{"molecule": "[Ag+].[Ag+].[Ag+].[Ag+].[Ag+].[O-][I+]([O-])([O-])([O-])([O-])[O-]", "note": "[Ag5IO6, pentasilver hexaoxoiodate]", "values": [{"measurement": "Grain size", "setting": "[1]; Day 0", "result": 14, "unit": "Å"}, {"measurement": "Grain size", "setting": "[1]; Day 14", "result": 62, "unit": "Å"}, {"measurement": "Grain size", "setting": "[1]; Day 28", "result": 94, "unit": "Å"}, {"measurement": "Composition remaining Ag5IO6", "setting": "[1]; 672 h", "result": 100, "unit": "%"}, {"measurement": "Shelf life", "setting": "[1]; room temperature, extrapolated from accelerated storage", "result": "> 2", "unit": "years"}, {"measurement": "Solubility", "setting": "[2]; ddH2O", "result": "24.41 ± 0.87", "unit": "mg/L"}, {"measurement": "pH of solution", "setting": "[2]; in ddH2O", "result": 8}, {"measurement": "Solid material converted to Ag metal (XRD)", "setting": "[2]; in ddH2O, end of experiment", "result": 0.1, "unit": "%"}, {"measurement": "Solid material remaining as Ag5IO6 (XRD)", "setting": "[2]; in ddH2O, end of experiment", "result": "approximately 99.9%"}, {"measurement": "pH of solution", "setting": "[2]; in saline", "result": 10}, {"measurement": "Solid material converted to AgCl (XRD)", "setting": "[2]; in saline, end of experiment", "result": "approximately 25%"}, {"measurement": "Solubility", "setting": "[2]; saline (0.9%)", "result": "0.61 ± 0.05", "unit": "mg/L"}, {"measurement": "Ag5IO6 purity by XRD after mixing into gel", "setting": "[3]; 500 ppm Ag5IO6 in AquaThik gel", "result": 100, "unit": "%"}, {"measurement": "XRD: reaction of Ag5IO6 with gel", "setting": "[3]; 500 ppm Ag5IO6 in Cremophor gel", "result": "no Ag5IO6 detected by the XRD analysis"}, {"measurement": "XRD: reaction of Ag5IO6 with gel", "setting": "[3]; 500 ppm Ag5IO6 in DuoDerm hydrogel", "result": "remained pure"}, {"measurement": "XRD: reaction of Ag5IO6 with gel", "setting": "[3]; 500 ppm Ag5IO6 in Gelrite (0.4% in water)", "result": "did not react"}, {"measurement": "XRD: reaction of Ag5IO6 with gel", "setting": "[3]; 500 ppm Ag5IO6 in IntraSite gel", "result": "no reaction products"}, {"measurement": "XRD: reaction of Ag5IO6 with gel", "setting": "[3]; 500 ppm Ag5IO6 in Lubrajel PF", "result": "had not reacted"}, {"measurement": "XRD: reaction of Ag5IO6 with gel", "setting": "[3]; 500 ppm Ag5IO6 in Lubrajel RC", "result": "did not react"}, {"measurement": "XRD: reaction of Ag5IO6 with gel", "setting": "[3]; 500 ppm Ag5IO6 in Normlgel (0.9% NaCl), AgCl found", "result": "incompatible under these conditions with this gel for long term storage"}, {"measurement": "Visual signs of instability after addition of Ag5IO6", "setting": "[3]; 500 ppm Ag5IO6 in Pluronic F127 plus Carbowax 600, no XRD", "result": "undesirable physical changes in the gel"}, {"measurement": "XRD: reaction of Ag5IO6 with gel", "setting": "[3]; 500 ppm Ag5IO6 in SoloSite gel", "result": "no reaction products"}, {"measurement": "Ag5IO6 purity by XRD after mixing into gel", "setting": "[3]; 500 ppm Ag5IO6 in SteriLub gel", "result": 100, "unit": "%"}, {"measurement": "XRD: reaction of Ag5IO6 with gel", "setting": "[3]; 500 ppm Ag5IO6 in carboxymethylcellulose gel (4% in water)", "result": "not reactive"}, {"measurement": "Rank of solubility in organic solvents", "setting": "[4]", "result": "methanol>>THF>acetone>acetonitrile"}, {"measurement": "Onset of significant reaction", "setting": "[4]; acetonitrile (slower onset), room temperature", "result": "about 56 h"}, {"measurement": "Time blended without substantial reaction", "setting": "[4]; all solvents (methanol, tetrahydrofuran, acetone, acetonitrile), room temperature", "result": "< 18", "unit": "h"}, {"measurement": "Onset of significant reaction", "setting": "[4]; methanol, room temperature", "result": "about 33 h"}, {"measurement": "Onset of significant reaction", "setting": "[4]; solvent printed as THE, room temperature", "result": "about 56 h"}]}
